In assay [1] the test system is Staphylococcus aureus ATCC 29213. Kind of assay: in vitro antibacterial activity, dilution MIC (CLSI M07-A10). Format: cell-based. The note with it: ATCC29213.
Assay [2] has as its system Staphylococcus aureus ATCC BAA-1556 (MERSA resistant). Described as above. The class given is cell-based. Conditions: ATCCBAA1556.
Assay [3] deals with Staphylococcus epidermidis. Described as above. The class given is cell-based.
For assay [4], the system named is Bacillus subtilis MTCC 441. Described as above. Format: cell-based. The note with it: MTCC441.
In assay [5] the test system is Enterococcus faecium ATCC 35667. Described as above. Format: cell-based. Conditions: ATCC35667.
For assay [6], the system named is Enterococcus faecium ATCC 51559 (VRE resistant). The description is as above. The class given is cell-based.
Assay [7] relates to Klebsiella pneumonia MTCC 618. The description is as above. The class given is cell-based. The note with it: Klebsiella pneumoniae, MTCC618.
Assay [8] has as its system Escherichia coli MTCC 443. The description is as above. The class given is cell-based. The note with it: MTCC443.
The subject of assay [9] is Pseudomonas aeruginosa MTCC 741. The description is as above. Format: cell-based. The note with it: MTCC741.
Assay [10] relates to H37Rv type of M. tuberculosis strains. Kind of assay: antitubercular alamar blue microplate MIC assay. The note with it: mycobacterium tuberculosis H37Rv strain, read-out: anti-mycobacterial activity (MIC). Format: cell-based. For orientation: Alamar Blue is a resazurin reagent that responds to reducing activity.
The target of a further assay is T1, DNA gyrase from E. coli (Escherichia coli, UniProt P0AES4+P0AES6).
T1 construct: purchased Inspiralis
As to the kind of experiment: Inhibitory activities on E. coli DNA Gyrase (Inspiralis assay). Format: biochemical. Here is the method:
First, the plates were rehydrated with buffer (20 mM Tris-HCl with pH 7.6, 0.01% w/v BSA, 0.05% v/v Tween 20, 137 mM NaCl) and the biotinylated oligonucleotide was then immobilized. After washing off the unbound oligonucleotide, the enzyme test was performed. […] Reaction solutions were incubated at 37° C. for 30 min. After that, the TF buffer (50 mM NaOAc with pH 5.0, 50 mM NaCl and 50 mM MgCl2) was added to terminate the enzymatic reaction. After additional incubation for 30 min at rt, during which biotinoligonucleotide-plasmid triplex was formed, the unbound plasmid was washed off using TF buffer and SybrGOLD in T10 buffer (10 mM Tris HCl with pH 8.0 and 1 mM EDTA) was added. The fluorescence was measured with a microplate reader (BioTek Synergy H4, excitation: 485 nm, emission: 535 nm). Initial screening was done at 100 or 10 μM concentration of inhibitors. […] GraphPad Prism software was used to calculate the IC50 values. The result is given as the average value of three independent measurements.

Data on two compounds can be found in patent US11866412B1, “Acridin-9-one compounds as antibacterial agents” (KING FAISAL UNIVERSITY, priority 2023, dated 2024).

Molecules are shown by their SMILES. ≈ marks a conversion by molar mass, not a printed value. Where two headings read alike, the source gives them in different places.

T1 sequence (P0AES4 whole entry, one chain of several): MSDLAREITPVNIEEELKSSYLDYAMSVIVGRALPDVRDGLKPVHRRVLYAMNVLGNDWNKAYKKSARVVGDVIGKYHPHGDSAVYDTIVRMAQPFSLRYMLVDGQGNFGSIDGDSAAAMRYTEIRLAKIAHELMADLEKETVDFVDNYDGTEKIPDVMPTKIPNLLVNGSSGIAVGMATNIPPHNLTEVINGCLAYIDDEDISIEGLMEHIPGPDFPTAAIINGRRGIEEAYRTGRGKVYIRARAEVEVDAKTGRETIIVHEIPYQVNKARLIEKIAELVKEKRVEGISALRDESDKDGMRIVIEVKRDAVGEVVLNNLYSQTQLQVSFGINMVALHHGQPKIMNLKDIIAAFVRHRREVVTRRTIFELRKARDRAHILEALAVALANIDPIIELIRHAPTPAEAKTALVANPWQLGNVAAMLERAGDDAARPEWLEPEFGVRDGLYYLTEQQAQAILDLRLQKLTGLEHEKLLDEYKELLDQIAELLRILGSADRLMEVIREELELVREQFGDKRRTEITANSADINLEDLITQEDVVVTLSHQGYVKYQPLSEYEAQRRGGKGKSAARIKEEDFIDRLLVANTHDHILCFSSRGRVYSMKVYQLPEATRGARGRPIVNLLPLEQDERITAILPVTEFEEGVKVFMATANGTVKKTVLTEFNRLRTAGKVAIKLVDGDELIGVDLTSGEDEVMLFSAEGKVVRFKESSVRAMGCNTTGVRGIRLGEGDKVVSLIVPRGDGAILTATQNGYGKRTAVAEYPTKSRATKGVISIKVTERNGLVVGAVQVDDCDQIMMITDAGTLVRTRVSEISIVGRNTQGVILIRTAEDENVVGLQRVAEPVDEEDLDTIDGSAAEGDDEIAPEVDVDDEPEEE

As a reminder, the MIC is the lowest concentration that inhibits growth of the organism. A word on the IC50: it is the concentration that gives 50% inhibition. `CCCCCN(C)Cc1ccc(C(=O)O)cc1-c1cnc2[nH]c3c(NC)cc(F)cc3c(=O)c2c1` [Compound 8, 3-(7-fluoro-9-(methylamino)-5-oxo-5,10-dihydrobenzo[b][1,8]naphthyridin-3-yl)-4-((methyl(pentyl)amino)methyl)benzoic acid]: the MIC in assay [1] came to 0.75 µg/mL (≈ 1.57 µM); in [2], 0.75 µg/mL (≈ 1.57 µM); in assay [3] it was 1 µg/mL (≈ 2.1 µM); in assay [4] it was 0.5 µg/mL (≈ 1.05 µM); in assay [5] it was 0.1 µg/mL (≈ 0.21 µM); in [6] it was 0.1 µg/mL (≈ 0.21 µM). Also, the minimal inhibitory concentration (MIC) in assay [7] (Klebsiella pneumonia MTCC 618, read-out: MIC) came out at 0.75 µg/mL (≈ 1.57 µM); in [8] it was 2 µg/mL (≈ 4.2 µM); in assay [9], 0.5 µg/mL (≈ 1.05 µM); in assay [10] it was 4 µg/mL (≈ 8.39 µM). Besides, the IC50 on DNA gyrase from E. coli came out at 11 nM.
`CN[C@H](CC(C)C)C(=O)N[C@H]1C(=O)N[C@@H](CC(N)=O)C(=O)N[C@H]2C(=O)N[C@H]3C(=O)N[C@H](C(=O)N[C@H](C(=O)O)c4cc(O)cc(O)c4-c4cc3ccc4O)[C@H](O)c3ccc(c(Cl)c3)Oc3cc2cc(c3O[C@@H]2O[C@H](CO)[C@@H](O)[C@H](O)[C@H]2O[C@H]2C[C@](C)(N)[C@H](O)[C@H](C)O2)Oc2ccc(cc2Cl)[C@H]1O` [Vancomycin, reference compound] had an MIC in assay [7] greater than 128 µg/mL.
